Experimental data: patent US4443436A, “C-20-Modified macrolide derivatives of the macrolide antibiotics tylosin, desmycosin, macrocin, and lactenocin” (Eli Lilly and Company, priority 1982, dated 1984)
In brackets after ≈: the same amount, converted by molar mass. Where two headings read alike, the source gives them in different places.

Legend:
[1] = system: Staphylococcus aureus X1.1; assay: MIC, standard agar-dilution assay, Staphylococcus aureus X1.1; format: cell-based
[2] = system: Pasteurella hemolytica 22C; assay: MIC, broth-dilution microtiter test, Pasteurella hemolytica 22C; format: cell-based
Source text: (§1) The MIC's in Table X were obtained using conventional broth-dilution microtiter tests.

[3] = system: Staphylococcus aureus S13E; assay: MIC, standard agar-dilution assay, Staphylococcus aureus S13E; format: cell-based
[4] = system: Mycoplasma hyorhinis; assay: MIC, broth-dilution microtiter test, Mycoplasma hyorhinis; format: cell-based; settings: Mycoplasma hyorhinis, broth-dilution microtiter
Source text: as §1

[5] = system: Mycoplasma gallisepticum; assay: MIC, broth-dilution microtiter test, Mycoplasma gallisepticum; format: cell-based
Source text: as §1

[6] = system: Haemophilus influenzae R252; assay: MIC, standard agar-dilution assay, Haemophilus influenzae R252; format: cell-based
[7] = system: Pasteurella multocida 17E; assay: MIC, broth-dilution microtiter test, Pasteurella multocida 17E; format: cell-based; settings: Pasteurella multocida 17E, bovine isolate, broth-dilution microtiter
Source text: as §1

[8] = system: Staphylococcus epidermidis EPI1; assay: MIC, standard agar-dilution assay, Staphylococcus epidermidis EPI1; format: cell-based
[9] = system: Staphylococcus aureus V41; assay: MIC, standard agar-dilution assay, Staphylococcus aureus V41; format: cell-based
[10] = system: Streptococcus pneumoniae Park I; assay: microbe, parasite or virus in culture; format: cell-based; settings: Streptococcus pneumoniae
[11] = system: Streptococcus bovis 80; assay: MIC, broth-dilution microtiter test, Streptococcus bovis 80; format: cell-based
Source text: as §1

[12] = system: Streptococcus Group 9960; assay: MIC, standard agar-dilution assay, Streptococcus Group 9960; format: cell-based; settings: Streptococcus Group 9960, agar dilution
[13] = system: Streptococcus pyogenes C203; assay: MIC, standard agar-dilution assay, Streptococcus pyogenes C203; format: cell-based
[14] = system: Streptococcus Group D X66; assay: MIC, standard agar-dilution assay, Streptococcus Group D X66; format: cell-based; settings: Streptococcus Group D X66, agar dilution
[15] = system: Staphylococcus aureus X400; assay: MIC, standard agar-dilution assay, Staphylococcus aureus X400; format: cell-based
[16] = system: Pasteurella multocida 60A; assay: MIC, broth-dilution microtiter test, Pasteurella multocida 60A; format: cell-based
Source text: as §1

[17] = system: Staphylococcus aureus; assay: MIC, broth-dilution microtiter test, Staphylococcus aureus; format: cell-based
Source text: as §1

[18] = system: Mycoplasma synoviae; assay: MIC, broth-dilution microtiter test, Mycoplasma synoviae; format: cell-based
Source text: as §1

[19] = system: Streptococcus pyogenes C203; assay: In vivo protection of mice experimentally infected with S. pyogenes C203; settings: mice, doses given 1 and 4 hours post-infection; for ED50: Streptococcus pyogenes
Procedure: The C-20 modified derivatives of this invention have shown in vivo antimicrobial activity against experimentally-induced infections in laboratory animals. When two doses of test compound were administered to mice experimentally infected with S. pyogenes C203, the activity observed was measured as an ED50 value [effective dose in mg/kg to protect 50% of the test animals: see Warren Wick, et al., J. Bacteriol. 81, 233-235 (1961)].

[20] = system: Haemophilus influenzae Holt; assay: MIC, standard agar-dilution assay, Haemophilus influenzae Holt; format: cell-based
[21] = system: Staphylococcus epidermidis EPI2; assay: MIC, standard agar-dilution assay, Staphylococcus epidermidis EPI2; format: cell-based
[22] = Pasteurella hemolytica 22C, broth-dilution microtiter, read-out: MIC
[23] = Staphylococcus epidermidis, EPI1
[24] = Streptococcus equinus, Streptococcus bovis 80, broth-dilution microtiter, read-out: MIC
[25] = Pasteurella multocida 60A, avian isolate, broth-dilution microtiter, read-out: MIC
[26] = C203, sc, subcutaneous, read-out: ED50, Subcutaneous
[27] = C203, oral, read-out: ED50, Oral

CCC1OC(=O)CC(O)C(C)C(OC2OC(C)C(OC3CC(C)(O)C(O)C(C)O3)C(N(C)C)C2O)C(CCN=[N+]=[N-])CC(C)C(=O)C=CC(C)=CC1COC1OC(C)C(O)C(OC)C1OC (stereo not drawn) [Compound 2, 20-DH-DO-20-Azidotylosin]
MIC ([1]; Staphylococcus aureus, X1.1): 2 µg/mL (≈ 2.12 µM)
MIC [2, 22]: > 50 µg/mL
MIC ([3]; Staphylococcus aureus, S13E): 1 µg/mL (≈ 1.06 µM)
MIC ([4]; read-out: MIC): > 50 µg/mL
MIC ([5]; Mycoplasmoides gallisepticum): 1.56 µg/mL (≈ 1.65 µM)
MIC ([6]; Haemophilus influenzae R252, ampicillin-resistant strain, read-out: MIC): > 128 µg/mL
MIC ([7]; read-out: MIC): > 50 µg/mL
MIC [8, 23]: 1 µg/mL (≈ 1.06 µM)
MIC ([9]; Staphylococcus aureus, V41): 1 µg/mL (≈ 1.06 µM)
MIC [10]: 32 µg/mL (≈ 33.9 µM)
MIC [11, 24]: 50 µg/mL (≈ 53 µM)
MIC ([12]; GROUP9960, read-out: MIC): 128 µg/mL (≈ 136 µM)
MIC ([13]; Streptococcus pyogenes, C203): 2 µg/mL (≈ 2.12 µM)
MIC ([14]; read-out: MIC): 128 µg/mL (≈ 136 µM)
MIC ([15]; Staphylococcus aureus, X400): 2 µg/mL (≈ 2.12 µM)
MIC [16, 25]: > 50 µg/mL
MIC [17]: 3.12 µg/mL (≈ 3.31 µM)
MIC ([18]; Mycoplasmopsis synoviae): 12.5 µg/mL (≈ 13.3 µM)
ED50 [19, 26]: > 6.3 mg/kg
ED50 [19, 27]: 18 mg/kg
MIC ([20]; Haemophilus influenzae Holt, ampicillin-sensitive strain, read-out: MIC): > 128 µg/mL

CCC1OC(=O)CC(O)C(C)C(OC2OC(C)C(OC3CC(C)(O)C(O)C(C)O3)C(N(C)C)C2O)C(CCSc2nnnn2C)CC(C)C(=O)C=CC(C)=CC1COC1OC(C)C(O)C(OC)C1OC (stereo not drawn) [Compound 5, 20-DH-DO-20-[(1-N-Methyltetrazol-5-yl)thio]tylosin]
MIC ([1]; Staphylococcus aureus, X1.1): 0.5 µg/mL (≈ 0.492 µM)
MIC [2, 22]: > 50 µg/mL
MIC ([3]; Staphylococcus aureus, S13E): 2 µg/mL (≈ 1.97 µM)
MIC ([4]; read-out: MIC): > 50 µg/mL
MIC ([5]; Mycoplasmoides gallisepticum): 1.56 µg/mL (≈ 1.54 µM)
MIC ([6]; Haemophilus influenzae, R252): 128 µg/mL (≈ 126 µM)
MIC ([7]; read-out: MIC): > 50 µg/mL
MIC ([8]; Staphylococcus epidermidis EPI1, agar dilution, read-out: MIC): 1 µg/mL (≈ 0.984 µM)
MIC ([9]; Staphylococcus aureus V41, penicillin-resistant strain, agar dilution, read-out: MIC): 1 µg/mL (≈ 0.984 µM)
MIC [10]: 32 µg/mL (≈ 31.5 µM)
MIC [11, 24]: > 50 µg/mL
MIC ([12]; GROUP9960, read-out: MIC): 128 µg/mL (≈ 126 µM)
MIC ([13]; Streptococcus pyogenes C203, agar dilution, read-out: MIC): 1 µg/mL (≈ 0.984 µM)
MIC ([14]; read-out: MIC): 128 µg/mL (≈ 126 µM)
MIC ([15]; Staphylococcus aureus, X400): 2 µg/mL (≈ 1.97 µM)
MIC [16, 25]: > 50 µg/mL
MIC [17]: 1.56 µg/mL (≈ 1.54 µM)
MIC ([18]; Mycoplasmopsis synoviae): 3.12 µg/mL (≈ 3.07 µM)
ED50 [19, 26]: > 6.3 mg/kg
ED50 [19, 27]: 56 mg/kg
MIC ([20]; Haemophilus influenzae): > 128 µg/mL

CCOC(=O)c1ccc(OCCC2CC(C)C(=O)C=CC(C)=CC(COC3OC(C)C(O)C(OC)C3OC)C(CC)OC(=O)CC(O)C(C)C2OC2OC(C)C(O)C(N(C)C)C2O)cc1 (stereo not drawn) [Compound 38, 20-DH-20-O-[p-(Ethoxycarbonyl)phenyl]desmycosin]
MIC ([1]; Staphylococcus aureus, X1.1): 0.5 µg/mL (≈ 0.542 µM)
MIC ([2]; Pasteurella, 22C): 50 µg/mL (≈ 54.2 µM)
MIC ([3]; Staphylococcus aureus, S13E): 0.5 µg/mL (≈ 0.542 µM)
MIC ([4]; read-out: MIC): 25 µg/mL (≈ 27.1 µM)
MIC ([5]; Mycoplasmoides gallisepticum, Mycoplasma gallisepticum, broth-dilution microtiter, read-out: MIC): 0.39 µg/mL (≈ 0.423 µM)
MIC ([7]; read-out: MIC): 25 µg/mL (≈ 27.1 µM)
MIC [8, 23]: 0.5 µg/mL (≈ 0.542 µM)
MIC ([9]; Staphylococcus aureus, V41): 0.5 µg/mL (≈ 0.542 µM)
MIC [10]: 1 µg/mL (≈ 1.08 µM)
MIC ([11]; Streptococcus equinus, 80): 0.78 µg/mL (≈ 0.846 µM)
MIC ([21]; Staphylococcus epidermidis, EPI2): 0.25 µg/mL (≈ 0.271 µM)
MIC ([12]; GROUP9960, read-out: MIC): 16 µg/mL (≈ 17.4 µM)
MIC ([13]; Streptococcus pyogenes, C203): 0.5 µg/mL (≈ 0.542 µM)
MIC ([14]; read-out: MIC): 8 µg/mL (≈ 8.68 µM)
MIC ([15]; Staphylococcus aureus, X400): 0.5 µg/mL (≈ 0.542 µM)
MIC ([16]; Pasteurella multocida, 60A): 50 µg/mL (≈ 54.2 µM)
MIC [17]: 0.78 µg/mL (≈ 0.846 µM)
MIC ([18]; Mycoplasmopsis synoviae): 1.56 µg/mL (≈ 1.69 µM)
ED50 [19, 26]: > 10 mg/kg
ED50 [19, 27]: 35 mg/kg
MIC ([20]; Haemophilus influenzae): 16 µg/mL (≈ 17.4 µM)

CCC1OC(=O)CC(O)C(C)C(OC2OC(C)C(O)C(N(C)C)C2O)C(CCOc2ccc(CN3CCCCCC3)cc2)CC(C)C(=O)C=CC(C)=CC1COC1OC(C)C(O)C(OC)C1OC (stereo not drawn) [Compound 42, 20-DH-20-O-[p-(Hexahydroazepin-1-ylmethyl)phenyl]desmycosin]
MIC ([1]; Staphylococcus aureus X1.1, agar dilution): 0.5 µg/mL (≈ 0.52 µM)
MIC ([2]; Pasteurella hemolytica 22C, broth-dilution microtiter): 12.5 µg/mL (≈ 13 µM)
MIC ([3]; Staphylococcus aureus S13E, agar dilution): 0.5 µg/mL (≈ 0.52 µM)
MIC [4]: 25 µg/mL (≈ 26 µM)
MIC ([5]; Mycoplasma gallisepticum, broth-dilution microtiter): 0.39 µg/mL (≈ 0.406 µM)
MIC ([6]; Haemophilus influenzae R252, ampicillin-resistant strain, agar dilution): 32 µg/mL (≈ 33.3 µM)
MIC [7]: 12.5 µg/mL (≈ 13 µM)
MIC ([8]; Staphylococcus epidermidis EPI1, agar dilution): 0.5 µg/mL (≈ 0.52 µM)
MIC ([9]; Staphylococcus aureus V41, penicillin-resistant strain, agar dilution): 0.1 µg/mL (≈ 0.104 µM)
MIC ([11]; Streptococcus bovis 80, broth-dilution microtiter): 3.12 µg/mL (≈ 3.25 µM)
MIC ([21]; Staphylococcus epidermidis EPI2, agar dilution): 0.25 µg/mL (≈ 0.26 µM)
MIC [12]: 8 µg/mL (≈ 8.32 µM)
MIC ([13]; Streptococcus pyogenes C203, agar dilution): 0.5 µg/mL (≈ 0.52 µM)
MIC [14]: 8 µg/mL (≈ 8.32 µM)
MIC ([15]; Staphylococcus aureus X400, methicillin-resistant strain, agar dilution): 1 µg/mL (≈ 1.04 µM)
MIC ([16]; Pasteurella multocida 60A, avian isolate, broth-dilution microtiter): 12.5 µg/mL (≈ 13 µM)
MIC ([17]; broth-dilution microtiter): 1.56 µg/mL (≈ 1.62 µM)
MIC ([18]; Mycoplasma synoviae, broth-dilution microtiter): 0.195 µg/mL (≈ 0.203 µM)
ED50, Oral ([19]; oral): > 100 mg/kg × 2
ED50, Subcutaneous ([19]; subcutaneous): > 25 mg/kg × 2
MIC ([20]; Haemophilus influenzae Holt, ampicillin-sensitive strain, agar dilution): 32 µg/mL (≈ 33.3 µM)
